Our source for the relative viability values is the supplement of paper PMC10307832.

What all share (assay): relative viability (nuclei count vs DMSO), 5 days (fraction); higher = more cells survive
Compound in the assay “CUDC-101 + Vorinostat”: C#Cc1cccc(Nc2ncnc3cc(OC)c(OCCCCCCC(=O)NO)cc23)c1 [CUDC-101] + O=C(CCCCCCC(=O)Nc1ccccc1)NO [Vorinostat] (partner 1 µM)
An outline of the steps:
(§1)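 Relative viability divides the nuclei count in treated wells by that in vehicle wells. Lung cancer cell lines were seeded in 1536-well plates, dosed by pin tool the next day, and fixed and stained after 5 days in one step with final 0.05% Triton X-100, 1% formaldehyde and 1 ug/ml Hoechst. Dosing was a single drug or a fixed anchor-drug dose plus five library-drug doses (not always all listed) in √10 steps, and values are medians of duplicate plates imaged at 4×.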

Compound in the assay “Vandetanib + Alpelisib”: COc1cc2/c(=N/c3ccc(Br)cc3F)nc[nH]c2cc1OCC1CCN(C)CC1 [Vandetanib] + Cc1nc(NC(=O)N2CCC[C@H]2C(N)=O)sc1-c1ccnc(C(C)(C)C(F)(F)F)c1 [Alpelisib] (partner 2 µM)
In outline: as §1

Compound in assay [1]: C1=CC=C2C(=C1)N=C(S2)C(C#N)C3=NC(=NC=C3)NCCC4=CN=CC=C4 + Cc1nc(NC(=O)N2CCC[C@H]2C(N)=O)sc1-c1ccnc(C(C)(C)C(F)(F)F)c1 [Alpelisib] (partner 2 µM)
An outline of the steps: as §1

Compound in the assay “CUDC-101 + Pictilisib”: C#Cc1cccc(Nc2ncnc3cc(OC)c(OCCCCCCC(=O)NO)cc23)c1 [CUDC-101] + CS(=O)(=O)N1CCN(Cc2cc3nc(-c4cccc5[nH]ncc45)nc(N4CCOCC4)c3s2)CC1 [Pictilisib] (partner 1 µM)
In outline:
as §1

For the cell line NCI-H647, the relative viability was 0.479 with CUDC-101 + Vorinostat (first compound 0.01 µM); 0.465 with CUDC-101 + Vorinostat (first compound 0.03162 µM); 0.664 in the assay with CUDC-101 + Vorinostat (first compound 0.1 µM); 0.427 with CUDC-101 + Vorinostat (first compound 0.3162 µM); 0.262 with CUDC-101 + Vorinostat (first compound 1 µM); 1.03 with Vandetanib + Alpelisib (first compound 0.02 µM). Besides, the relative viability in the assay with Vandetanib + Alpelisib (first compound 0.06325 µM) was found to be 1.1; with Vandetanib + Alpelisib (first compound 0.2 µM) it was 1.11; with Vandetanib + Alpelisib (first compound 0.6325 µM), 1.1; with Vandetanib + Alpelisib (first compound 2 µM), 0.786; in assay [1] (first compound 0.01581 µM) it was 1.18; in assay [1] (first compound 0.05 µM), 0.876. For the same cell line, the relative viability in assay [1] (first compound 0.1581 µM) was 1.41; in assay [1] (first compound 0.5 µM) it was 0.599; with CUDC-101 + Pictilisib (first compound 0.01 µM) it was 0.446; in the assay with CUDC-101 + Pictilisib (first compound 0.03162 µM) it was 0.512; with CUDC-101 + Pictilisib (first compound 0.1 µM) it was 0.576; with CUDC-101 + Pictilisib (first compound 0.3162 µM), 0.491. Further, the relative viability in the assay with CUDC-101 + Pictilisib (first compound 1 µM) came out at 0.361.

For the cell line LC-2-ad, the relative viability stood at 0.721 in the assay with CUDC-101 + Vorinostat (first compound 0.01 µM); 0.716 with CUDC-101 + Vorinostat (first compound 0.03162 µM); 0.703 in the assay with CUDC-101 + Vorinostat (first compound 0.1 µM); 0.658 with CUDC-101 + Vorinostat (first compound 0.3162 µM); 0.538 with CUDC-101 + Vorinostat (first compound 1 µM); 0.815 with Vandetanib + Alpelisib (first compound 0.02 µM). In addition, the relative viability in the assay with Vandetanib + Alpelisib (first compound 0.06325 µM) amounted to 0.876; with Vandetanib + Alpelisib (first compound 0.2 µM), 0.898; in the assay with Vandetanib + Alpelisib (first compound 0.6325 µM) it was 0.802; with Vandetanib + Alpelisib (first compound 2 µM) it was 0.498; in assay [1] (first compound 0.005 µM), 0.768; in assay [1] (first compound 0.01581 µM) it was 0.867. The relative viability turned out to be 0.822 in assay [1] (first compound 0.05 µM); 0.966 in assay [1] (first compound 0.1581 µM); 0.734 in assay [1] (first compound 0.5 µM); 0.421 in the assay with CUDC-101 + Pictilisib (first compound 0.01 µM); 0.601 in the assay with CUDC-101 + Pictilisib (first compound 0.03162 µM); 0.549 with CUDC-101 + Pictilisib (first compound 0.1 µM). Also, the relative viability with CUDC-101 + Pictilisib (first compound 0.3162 µM) amounted to 0.301; with CUDC-101 + Pictilisib (first compound 1 µM) it was 0.104.

As for LK-2, the relative viability with CUDC-101 + Vorinostat (first compound 0.01 µM) was 0.37; with CUDC-101 + Vorinostat (first compound 0.03162 µM), 0.407; with CUDC-101 + Vorinostat (first compound 0.1 µM), 0.228; with CUDC-101 + Vorinostat (first compound 0.3162 µM) it was 0.23; with CUDC-101 + Vorinostat (first compound 1 µM), 0.158; in the assay with Vandetanib + Alpelisib (first compound 0.02 µM), 0.951. Moreover, the relative viability was 1.04 in the assay with Vandetanib + Alpelisib (first compound 0.06325 µM); 1.11 in the assay with Vandetanib + Alpelisib (first compound 0.2 µM); 1.16 with Vandetanib + Alpelisib (first compound 0.6325 µM); 1.11 with Vandetanib + Alpelisib (first compound 2 µM); 0.993 in assay [1] (first compound 0.05 µM); 1.3 in assay [1] (first compound 0.1581 µM). Besides, the relative viability in assay [1] (first compound 0.5 µM) is 1.11; with CUDC-101 + Pictilisib (first compound 0.01 µM) it was 0.593; with CUDC-101 + Pictilisib (first compound 0.03162 µM), 0.481; with CUDC-101 + Pictilisib (first compound 0.1 µM), 0.497; with CUDC-101 + Pictilisib (first compound 0.3162 µM), 0.59; with CUDC-101 + Pictilisib (first compound 1 µM), 0.312.

Take NCI-H520: the relative viability was determined as 0.769 with CUDC-101 + Vorinostat (first compound 0.01 µM); 0.686 in the assay with CUDC-101 + Vorinostat (first compound 0.03162 µM); 0.488 with CUDC-101 + Vorinostat (first compound 0.1 µM); 0.397 with CUDC-101 + Vorinostat (first compound 0.3162 µM); 0.32 in the assay with CUDC-101 + Vorinostat (first compound 1 µM); 0.832 with Vandetanib + Alpelisib (first compound 0.02 µM). Moreover, the relative viability in the assay with Vandetanib + Alpelisib (first compound 0.06325 µM) came to 0.924; in the assay with Vandetanib + Alpelisib (first compound 0.2 µM) it was 1.04; with Vandetanib + Alpelisib (first compound 0.6325 µM), 0.868; with Vandetanib + Alpelisib (first compound 2 µM), 0.921; in assay [1] (first compound 0.005 µM), 0.508; in assay [1] (first compound 0.01581 µM), 1.09. Also, the relative viability in assay [1] (first compound 0.05 µM) came out at 0.793; in assay [1] (first compound 0.1581 µM), 1.13; in assay [1] (first compound 0.5 µM), 0.665; in the assay with CUDC-101 + Pictilisib (first compound 0.01 µM), 0.307; in the assay with CUDC-101 + Pictilisib (first compound 0.1 µM), 0.305; with CUDC-101 + Pictilisib (first compound 0.3162 µM), 0.251. For the same cell line, the relative viability with CUDC-101 + Pictilisib (first compound 1 µM) was 0.214.

With NCI-H1975, the relative viability in the assay with CUDC-101 + Vorinostat (first compound 0.01 µM) worked out at 0.687; with CUDC-101 + Vorinostat (first compound 0.03162 µM), 0.712; with CUDC-101 + Vorinostat (first compound 0.1 µM) it was 0.781; with CUDC-101 + Vorinostat (first compound 0.3162 µM), 0.75; with CUDC-101 + Vorinostat (first compound 1 µM), 0.642; in the assay with Vandetanib + Alpelisib (first compound 0.02 µM), 0.583. Also, the relative viability with Vandetanib + Alpelisib (first compound 0.06325 µM) stood at 0.573; with Vandetanib + Alpelisib (first compound 0.2 µM), 0.597; in the assay with Vandetanib + Alpelisib (first compound 0.6325 µM), 0.63; with Vandetanib + Alpelisib (first compound 2 µM) it was 0.477; in assay [1] (first compound 0.005 µM) it was 0.352; in assay [1] (first compound 0.01581 µM), 0.669. The relative viability in assay [1] (first compound 0.05 µM) was determined as 0.62; in assay [1] (first compound 0.1581 µM), 0.668; in assay [1] (first compound 0.5 µM) it was 0.403; in the assay with CUDC-101 + Pictilisib (first compound 0.01 µM) it was 0.336; in the assay with CUDC-101 + Pictilisib (first compound 0.03162 µM) it was 0.323; with CUDC-101 + Pictilisib (first compound 0.1 µM), 0.265. Moreover, the relative viability was found to be 0.24 with CUDC-101 + Pictilisib (first compound 0.3162 µM) and 0.192 in the assay with CUDC-101 + Pictilisib (first compound 1 µM).
